Where two headings read alike, the source gives them in different places.
Columns and labels:
[1] = tested on: Dengue virus type 2 strain New Guinea C (NG-C) or Dengue virus type 4 strain H241; assay: Dengue virus cell-based assay (Huh-7.5 cells, CellTiter-Glo)
Experimental: The Dengue virus type 2 strain New Guinea C (NG-C) and the Dengue virus type 4 strain H241 were purchased from ATCC (Manassas, Va.; item numbers VR-1584 and VR-1490, respectively). 24 h prior to dosing, Huh-7.5 cells were plated in 96 well plates at a density of 1.5×10^5/mL in DMEM medium supplemented with 10% fetal bovine serum, 1% HEPES buffer, 1% Penicillin/Streptomycin and 1% non-essential amino acids (all Mediatech, Manassas, Va.). At the day of infection, serially diluted compounds were added to cells and incubated for 4 h. After the end of the 4 h pre-incubation period, cells were infected with either Dengue virus type 2 NG-C or Dengue virus type 4H241. The virus inoculum was selected to cause 80-90% cytopathic effect in five to six days. Infected cells were incubated for five (NG-C) to six (H241) days at 37° C., 5% CO2. To develop the assay, 100 μL media was replaced with 100 μl CellTiter-Glo® reagent (Promega, Madison, Wis.), and incubated for 10 mins at RT. Luminescence was measured on a Victor X3 multi-label plate reader. Potential compound cytotoxicity of was determined using uninfected parallel cultures.

[2] = tested on: Human rhinovirus 1B; assay: Picornavirus assay (CPE, CellTiter-Glo, HeLa-OHIO cells); type: cell-based
[3] = tested on: subgenomic HCV replicon; assay: HCV replicon assay (Huh-7, luciferase reporter); type: cell-based; details: Hepatitis C virus, Huh-7, 72 h
[4] = target: human rhinovirus 16 polymerase (HRV16pol) (Human rhinovirus 16, UniProt Q82122); assay: biochemical; details: HRV16pol, 2.5 h at 30° C., mean of several independent experiments; read-out: IC50
Sequence of human rhinovirus 16 polymerase (HRV16pol) (Q82122 1694-2153 limits assumed): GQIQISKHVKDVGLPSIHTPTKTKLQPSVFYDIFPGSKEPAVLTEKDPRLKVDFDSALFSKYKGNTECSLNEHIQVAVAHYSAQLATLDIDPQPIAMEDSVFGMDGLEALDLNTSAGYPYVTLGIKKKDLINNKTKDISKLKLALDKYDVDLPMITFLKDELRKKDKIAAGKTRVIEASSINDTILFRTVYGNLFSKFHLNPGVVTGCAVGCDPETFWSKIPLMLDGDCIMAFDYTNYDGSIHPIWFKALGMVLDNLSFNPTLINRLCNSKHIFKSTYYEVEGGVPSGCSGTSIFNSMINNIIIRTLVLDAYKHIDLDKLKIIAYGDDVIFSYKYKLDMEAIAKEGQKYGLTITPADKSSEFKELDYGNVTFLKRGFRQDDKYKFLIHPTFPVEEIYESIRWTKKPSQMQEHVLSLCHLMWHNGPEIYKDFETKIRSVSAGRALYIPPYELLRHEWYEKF

[5] = target: dengue virus NS5 polymerase domain (DENVpol, serotype 2, New Guinea C strain) (Dengue virus type 2, UniProt P14340); assay: Dengue virus polymerase inhibition assay; type: biochemical; details: DENVpol serotype 2, 3 hours at 30° C., mean of several independent experiments
Experimental: The enzyme activity of dengue virus NS5 polymerase domain (DENVpol, serotype 2, New Guinea C strain) was measured as an incorporation of tritiated NMP into acid-insoluble RNA products. DENVpol assay reactions contained 100 nM recombinant enzyme, 50 nM heteropolymeric RNA, about 0.5 μCi tritiated NTP, 0.33 μM of competing cold NTP, 40 mM HEPES (pH 7.5), 3 mM dithiothreitol, and 2 mM MgCl2. Standard reactions were incubated for 3 hours at 30° C., in the presence of increasing concentration of inhibitor. At the end of the reaction, RNA was precipitated with 10% TCA, and acid-insoluble RNA products were filtered on a size exclusion 96-well plate. After washing of the plate, scintillation liquid was added and radiolabeled RNA products were detected according to standard procedures with a Trilux Topcount scintillation counter. The compound concentration at which the enzyme-catalyzed rate was reduced by 50% (IC50) was calculated by fitting the data to a non-linear regression (sigmoidal).

[6] = target: NS5B570-Con1 (Delta-21) (Hepatitis C virus genotype 1b, UniProt Q9WMX2); assay: biochemical; design: species or system HCV
[7] = Rhinovirus A, 96 h, Human rhinovirus 1B, HeLa-OHIO cells, 4 d at 33° C., read-out: EC50
[8] = Huh-7.5 cells, antiviral activity, dengue type (2 NG-C or 4 H241) not given, read-out: IC50
[9] = Human rhinovirus 1B, HeLa-OHIO cells, 4 d at 33° C., read-out: EC50

SMILES	IC50 ([1]; Dengue virus, Huh7.5)	IC50 [4]	IC50 [5]	also measured
CCOc1nc(N)nc2c1ncn2[C@@H]1O[C@](F)(COP(=O)(N[C@@H](C)C(=O)OC2CCCCC2)Oc2ccccc2)[C@@H](F)[C@@]1(C)O (some centres unmarked) [Compound 16]	< 10 µM			EC50 ([2]; Rhinovirus A, 96 h): 1000 to 10000 nM; EC50 [3]: 1 to 10 µM
C[C@]1(F)[C@H](n2ccc(N)nc2=O)O[C@](F)(COP(=O)(O)OP(=O)(O)OP(=O)(O)O)[C@H]1O [compound 29]		< 1000 nM	< 1 µM	
C[C@@]1(O)[C@H](O)[C@@](CF)(COP(=O)(O)OP(=O)(O)OP(=O)(O)O)O[C@H]1n1ccc(=O)[nH]c1=O [compound 92]		< 1000 nM	< 10 µM	IC50 [6]: < 1000 nM
C[C@]1(Cl)[C@H](n2ccc(=O)[nH]c2=O)O[C@](F)(COP(=O)(O)OP(=O)(O)OP(=O)(O)O)[C@H]1O [compound 149]			< 10 µM	IC50 [6]: < 1000 nM
CCOc1nc(N)nc2c1ncn2[C@@H]1O[C@]2(F)CO[P@](=O)(OC(C)C)O[C@H]2[C@@]1(C)O [Compound 88]	< 10 µM			EC50 [2, 7]: 10000 to 100000 nM
CCOc1nc(N)nc2c1ncn2[C@@H]1O[C@]2(F)CO[P@](=O)(OC(C)C)O[C@H]2[C@@]1(C)F [Compound 86]	< 1 µM			EC50 [2, 7]: 10000 to 100000 nM
CCOc1nc(N)nc2c1ncn2[C@@H]1O[C@](F)(COP(=O)(OCOC(=O)OC(C)C)OCOC(=O)OC(C)C)[C@@H](O)[C@@]1(C)O [Compound 55]	< 1 µM			EC50 [2, 7]: < 1000 nM
C#C[C@]1(O)[C@H](n2ccc(=O)[nH]c2=O)O[C@](F)(COP(=O)(OCOC(=O)OC(C)C)OCOC(=O)OC(C)C)[C@H]1O [Compound 53]	< 10 µM			EC50 [2, 7]: < 1000 nM
CC(C)OC(=O)OCOP(=O)(OCOC(=O)OC(C)C)OC[C@@]1(F)O[C@@H](n2ccc(=O)[nH]c2=O)[C@](C)(O)[C@@H]1O [Compound 9]	< 10 µM			EC50 [2, 7]: < 1000 nM
C#C[C@]1(O)[C@H](n2cnc3c(=O)[nH]c(N)nc32)O[C@](F)(COP(=O)(O)OP(=O)(O)OP(=O)(O)O)[C@H]1O [compound 115]		< 1000 nM	< 1 µM	
C[C@]1(O)[C@H](n2ccc(N)nc2=O)O[C@](F)(COP(=O)(O)OP(=O)(O)OP(=O)(O)O)[C@H]1O [compound 124]		< 1000 nM	< 10 µM	
CCOc1nc(N)nc2c1ncn2[C@@H]1O[C@](F)(CO[P@](=O)(N[C@@H](C)C(=O)OC2CCCCC2)Oc2ccccc2)[C@@H](O)[C@@]1(C)F [Compound 25]	< 1 µM			EC50 ([2]; Rhinovirus A, 96 h): < 1000 nM
C[C@@]1(O)[C@H](O)[C@@](CF)(COP(=O)(O)OP(=O)(O)OP(=O)(O)O)O[C@H]1n1cnc2c(=O)[nH]c(N)nc21 [compound 34]		< 1000 nM	< 1 µM	IC50 [6]: < 1000 nM
CCOc1nc(N)nc2c1ncn2[C@@H]1O[C@](F)(CO[P@@](=O)(N[C@@H](C)C(=O)OC2CCCCC2)Oc2ccccc2)[C@@H](O)[C@@]1(C)F [Compound 26]	< 1 µM			EC50 ([2]; Rhinovirus A, 96 h): 1000 to 10000 nM
C#C[C@]1(F)[C@H](n2cnc3c(=O)[nH]c(N)nc32)O[C@](F)(COP(=O)(O)OP(=O)(O)OP(=O)(O)O)[C@H]1O [compound 123]		< 1000 nM	< 10 µM	
C#C[C@]1(O)[C@H](n2cnc3c(=O)[nH]c(N)nc32)O[C@](F)(COP(=O)(O)OP(=O)(O)OP(=O)(O)O)[C@H]1F [compound 103]		< 1000 nM	< 1 µM	IC50 [6]: < 1000 nM

SMILES	IC50 ([1]; Dengue virus, Huh7.5)	IC50 [4]	IC50 [5]	also measured
CCOc1nc(N)nc2c1ncn2[C@@H]1O[C@]2(F)CO[P@@](=O)(OC(C)C)O[C@H]2[C@@]1(C)O [Compound 89]	< 10 µM			EC50 [2, 7]: 10000 to 100000 nM
C#C[C@]1(O)[C@H](n2cnc3c(OCC)nc(N)nc32)O[C@](F)(CO[P@](=O)(N[C@@H](C)C(=O)OC2CCCCC2)Oc2ccccc2)[C@H]1O [Compound 27]				IC50 [1, 8]: < 10 µM; EC50 [2, 9]: < 1000 nM
CCOc1nc(N)nc2c1ncn2[C@@H]1O[C@](F)(COP(=O)(N[C@@H](C)C(=O)OC2CCCCC2)Oc2ccccc2)[C@@H](O)[C@@]1(C)O (some centres unmarked) [Compound 10]	< 1 µM			EC50 ([2]; Rhinovirus A, 96 h): < 1000 nM
C[C@@]1(O)[C@H](O)[C@@](CF)(COP(=O)(O)OP(=O)(O)OP(=O)(O)O)O[C@H]1n1ccc(N)nc1=O [compound 91]		< 10000 nM	< 100 µM	IC50 [6]: < 1000 nM
Nc1ccn([C@@H]2O[C@](CCl)(COP(=O)(O)OP(=O)(O)OP(=O)(O)O)[C@@H](O)[C@H]2O)c(=O)n1 [compound 164]			< 100 µM	
C#C[C@]1(O)[C@H](n2cnc3c(OCC)nc(N)nc32)O[C@](F)(CO[P@@](=O)(N[C@@H](C)C(=O)OC2CCCCC2)Oc2ccccc2)[C@H]1O [Compound 28]				IC50 [1, 8]: < 10 µM; EC50 [2, 9]: < 1000 nM
C#C[C@]1(O)[C@H](n2ccc(=O)[nH]c2=O)O[C@](F)(COP(=O)(N[C@@H](C)C(=O)OC2CCCCC2)Oc2ccccc2)[C@H]1O (some centres unmarked) [Compound 13]	< 1 µM			EC50 ([2]; Rhinovirus A, 96 h): < 1000 nM
C[C@]1(O)[C@H](n2ccc(=O)[nH]c2=O)O[C@](F)(COP(=O)(O)OP(=O)(O)OP(=O)(O)O)[C@H]1O [Compound 110]		< 10000 nM	< 1 µM	
C[C@]1(O)[C@H](n2cnc3c(=O)[nH]c(N)nc32)O[C@](F)(COP(=O)(O)OP(=O)(O)OP(=O)(O)O)[C@H]1F [compound 101]		< 1000 nM	< 10 µM	IC50 [6]: < 1000 nM
CC(C)OC(=O)OCOP(=O)(OCOC(=O)OC(C)C)OC[C@@]1(F)O[C@@H](n2cnc3c(=O)[nH]c(N)nc32)[C@](C)(O)[C@@H]1O [Compound 46]	< 100 µM			EC50 [2, 7]: < 1000 nM
C#C[C@]1(O)[C@H](n2ccc(=O)[nH]c2=O)O[C@](F)(COP(=O)(O)OP(=O)(O)OP(=O)(O)O)[C@H]1O [compound 114]		< 1000 nM	< 10 µM	
C[C@@]1(F)[C@H](O)[C@@](CF)(COP(=O)(O)OP(=O)(O)OP(=O)(O)O)O[C@H]1n1cnc2c(=O)[nH]c(N)nc21 [compound 162]		< 1000 nM	< 10 µM	IC50 [6]: 1000 to 10000 nM
C[C@]1(F)[C@H](n2cnc3c(=O)[nH]c(N)nc32)O[C@](F)(COP(=O)(O)OP(=O)(O)OP(=O)(O)O)[C@H]1O [compound 19]		< 1000 nM	< 10 µM	IC50 [6]: < 1000 nM
C[C@]1(F)[C@H](n2ccc(=O)[nH]c2=O)O[C@](F)(COP(=O)(O)OP(=O)(O)OP(=O)(O)O)[C@H]1O [compound 147]			< 10 µM	
CC(C)OC(=O)OCOP(=O)(OCOC(=O)OC(C)C)OC[C@@]1(F)O[C@@H](n2ccc(=O)[nH]c2=O)[C@](C)(F)[C@@H]1O [Compound 161]	< 10 µM			EC50 [2, 7]: 1000 to 10000 nM
C[C@H](NP(=O)(OC[C@@]1(F)O[C@@H](n2cnc3c(=O)[nH]c(N)nc32)[C@](C)(O)[C@@H]1F)Oc1ccccc1)C(=O)OC1CCCCC1 (some centres unmarked) [Compound 14]	< 10 µM			EC50 ([2]; Rhinovirus A, 96 h): 10000 to 100000 nM; EC50 [3]: 10 to 100 µM

From patent publication US10370401B2, “Substituted nucleosides, nucleotides and analogs thereof” (Alios BioPharma, Inc., priority 2013, dated 2019)
